Paper PMC7175277, “Hydroxylamine Analogue of Agmatine: Magic Bullet for Arginine Decarboxylase” (Biomolecules, 2020)

How the values were obtained:
[1] = test system: Acremonium chrysogenum high-cephalosporin-yielding (HY) RNCM F-4081D; experiment: Fungal growth inhibition (drop-dilution, CD agar), HY strain; type: cell-based; conditions: Hapsidospora chrysogena, 336 h, read-out: Growth inhibition
Description: (§1) Two strains of Acremonium chrysogenum were used in this study: the wild-type (Brotzu) isolate ATCC 11550 (WT) and high-cephalosporin-yielding RNCM F-4081D (HY), derived from the WT [37]. The cultivation conditions were the same as previously described. The filamentous fungi were cultivated on agarized Czapek-Dox (CD) medium (30 g/L sucrose, 2 g/L NaNO3, 1 g/L K2HPO4, 0.5 g/L MgSO4×7 H2O, 0.5 g/L KCl, 0.01 g/L FeSO4×7 H2O, 20 g/L agar, pH 7.0–7.4). To determine the toxic effect of AO-Agm, APA, DFMA and DFMO on the growth of fungal cells the drop-dilution method was used with some modifications as described earlier. Cells were collected from agar slants and diluted with 0.9% NaCl solution up to OD600 = 0.5 (basic concentration), followed by serial tenfold dilutions with the same solution. […] The inoculated Petri dishes were incubated for 21 days at 26 °C. The inhibitory effects of the compounds were measured every three days after inoculation and evaluated by measuring the ratio of colony growth on agarized CD medium supplemented with AO-Agm, APA, DFMA, or DFMO to the growth in the control (agarized CD medium without any additions). The formula: growth inhibition % = [(Dc − Dt)/Dc] × 100, where Dc indicates the colony diameter in control set, and Dt indicates the colony diameter in the treatment set that was used to determine the percent of fungal growth inhibition. The data recorded were measured in triplicate and repeated at least twice.

[2] = test system: DU145 prostate cancer cells; experiment: Intracellular polyamine pools of DU145 cells; type: cell-based; conditions: 3 days
Procedure: DU145 prostate cancer cells were cultured in high-glucose Dulbecco’s Modified Eagle’s Medium supplemented with 10% heat-inactivated fetal bovine serum, 2 mM L-glutamine and 50 μg/mL gentamycin (all from Sigma-Aldrich). The cells were plated on 6-well plates and allowed to attach overnight. […] The cells were harvested, and the pellet was mixed with 150 μL of 5% sulphosalicylic acid containing 5 μM diaminoheptane (internal standard). Polyamine analysis was carried out as described previously.

E. coli ADC = target: T1, E. coli ADC (Escherichia coli, UniProt P21170); experiment: Ultrafiltration of ADC~PLP=AO-Agm complex, then ADC activity assay; type: biochemical; conditions: 15 μM AO-Agm
T1 construct: The kinetic parameters determined for the partially purified biosynthetic ADC from E. coli; endogenous in cells; host or cells: E. coli DH5α (39-53% ammonium sulphate fraction of the lysate, desalted)
T1 sequence (P21170 1-658): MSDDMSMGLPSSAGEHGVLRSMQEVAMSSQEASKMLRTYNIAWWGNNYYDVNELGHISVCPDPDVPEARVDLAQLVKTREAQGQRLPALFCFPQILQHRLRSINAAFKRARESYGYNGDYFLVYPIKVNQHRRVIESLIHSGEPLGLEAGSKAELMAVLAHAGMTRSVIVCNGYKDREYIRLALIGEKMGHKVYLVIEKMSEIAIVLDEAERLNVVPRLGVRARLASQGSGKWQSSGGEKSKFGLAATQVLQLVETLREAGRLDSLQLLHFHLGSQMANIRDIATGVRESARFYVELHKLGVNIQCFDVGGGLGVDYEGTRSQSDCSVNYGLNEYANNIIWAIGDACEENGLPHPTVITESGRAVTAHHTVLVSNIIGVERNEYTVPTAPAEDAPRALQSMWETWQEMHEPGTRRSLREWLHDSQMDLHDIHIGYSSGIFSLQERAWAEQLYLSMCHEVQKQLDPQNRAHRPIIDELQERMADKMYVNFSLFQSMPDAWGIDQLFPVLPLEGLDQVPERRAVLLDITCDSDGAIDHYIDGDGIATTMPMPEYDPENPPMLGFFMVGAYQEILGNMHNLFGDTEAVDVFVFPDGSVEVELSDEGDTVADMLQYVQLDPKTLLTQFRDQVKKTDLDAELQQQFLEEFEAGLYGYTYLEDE
Procedure: Partially purified enzyme preparation was preincubated for 15 min with 15 μM AO-Agm (which produced 100% inhibition) or H2O (control) and 0.1 mM PLP in the assay buffer. The samples were placed on ice, and half of the reactions were filtered through a 3K cutoff ultrafiltration device (Millipore) and washed twice with 600 μL of buffer containing 50 mM Tris-HCl pH 7.4, 1 mM DTT and 0.1 mM PLP. ADC activity was then assayed.

[3] = test system: Acremonium chrysogenum wild-type (WT) ATCC 11550; experiment: Fungal growth inhibition (drop-dilution, CD agar), WT strain; type: cell-based; conditions: Hapsidospora chrysogena, ATCC11550, 336 h, 5 mM inhibitor, 14 days after inoculation on CD medium
Description: as §1

[4] = AO-Agm 10 μM in the presence of SC (1 mM)
[5] = AO-Agm 100 μM in the presence of SC (1 mM)
[6] = AO-Agm 1 mM in the presence of SC (1 mM)

Molecule `N=C(N)NCCCON` [AO-Agm, 1-aminooxy-3-guanidinopropane] has an inhibition at 5000 µM [1] of 49%, a Put [2, 4] of 922 ± 60 pmol/mg Protein and a Spd [2, 4] of 6405 ± 61 pmol/mg Protein. For the same molecule, the Spm [2, 4] was 3903 ± 72 pmol/mg Protein, the Put ([2]; AO-Agm 10 μM, no SC) was 1515 ± 98 pmol/mg Protein and the Spd ([2]; AO-Agm 10 μM, no SC) was 7237 ± 73 pmol/mg Protein. It also gave a Spm ([2]; AO-Agm 10 μM, no SC) of 3782 ± 55 pmol/mg Protein, a Put [2, 5] of 954 ± 115 pmol/mg Protein and a Spd [2, 5] of 6280 ± 122 pmol/mg Protein. For the same molecule, the Spm [2, 5] was 3621 ± 87 pmol/mg Protein, the Put ([2]; AO-Agm 100 μM, no SC) was 1447 ± 43 pmol/mg Protein and the Spd ([2]; AO-Agm 100 μM, no SC) was 7047 ± 155 pmol/mg Protein. For the same molecule, the Spm ([2]; AO-Agm 100 μM, no SC) was 3682 ± 152 pmol/mg Protein, the Spd [2, 6] was 1074 ± 159 pmol/mg Protein and the Spm [2, 6] was 2389 ± 105 pmol/mg Protein. It also gave a Put ([2]; AO-Agm 1 mM, no SC) of 1074 ± 30 pmol/mg Protein, a Spd ([2]; AO-Agm 1 mM, no SC) of 3609 ± 124 pmol/mg Protein and a Spm ([2]; AO-Agm 1 mM, no SC) of 3795 ± 98 pmol/mg Protein. For the same molecule, the inhibition at 15 µM (E. coli ADC; 15 min preincubation, 0.1 mM PLP) was 100%, the “ADC activity after ultrafiltration and washing of the inhibitory complex” value (E. coli ADC; buffer containing 0.1 mM PLP) was “fully restored ADC activity” and the inhibition at 5000 µM [3] was 34%.
